ChEMBL document CHEMBL1240356, “Efficacy profiles of daptomycin for treatment of invasive and noninvasive pulmonary infections with Streptococcus pneumoniae” (2010)
Active and inactive are the calls of the source. No cut-off for these calls is given here.

Tests used:
[1] = system: Streptococcus pneumoniae; assay: Antibacterial activity against 1.5 x 10^7 CFU Streptococcus pneumoniae serotype 19 infected in therapeutic C57BL/6 mouse model assessed as effect on leukocytes infiltration in BALF at 6 mg/kg, ip measured on day 3 post infection; type: functional, organism-based; parameters: dose 6 mg/kg
[2] = system: Streptococcus pneumoniae; assay: Antibacterial activity against high dose 1.5 x 10^7 CFU Streptococcus pneumoniae serotype 19 infected in semitherapeutic C57BL/6 mouse model assessed as reduction of bacteremia at 6 mg/kg, ip measured after 3 days post infection; type: functional, organism-based; parameters: dose 6 mg/kg
[3] = system: Streptococcus pneumoniae; assay: Antibacterial activity against 5 x 10^6 CFU Streptococcus pneumoniae serotype 2 infected in semitherapeutic C57BL/6 mouse model assessed as bacterial count in lung at 6 mg/kg, ip measured after 3 days post infection; type: functional; conditions: route intraperitoneal
[4] = system: Streptococcus pneumoniae; assay: Antibacterial activity against low dose 5 x 10^6 CFU Streptococcus pneumoniae serotype 19 infected in semitherapeutic C57BL/6 mouse model assessed as bacterial count in lung at 6 mg/kg, ip measured after 3 days post infection; type: functional; conditions: route intraperitoneal
[5] = system: Streptococcus pneumoniae; assay: Antibacterial activity against high dose 1.5 x 10^7 CFU Streptococcus pneumoniae serotype 19 infected in semitherapeutic C57BL/6 mouse model assessed as bacterial count in lung at 6 mg/kg, ip measured after 4 days post infection; type: functional; conditions: route intraperitoneal
[6] = system: Streptococcus pneumoniae; assay: Antibacterial activity against 1.5 x 10^7 CFU Streptococcus pneumoniae serotype 2 infected in therapeutic C57BL/6 mouse model assessed as increase in serum compound level at 6 mg/kg, ip measured on day 3 post infection; type: functional, organism-based; parameters: dose 6 mg/kg
[7] = system: Streptococcus pneumoniae; assay: Antibacterial activity against high dose 1.5 x 10^7 CFU Streptococcus pneumoniae serotype 2 infected in semitherapeutic C57BL/6 mouse model assessed as bacterial count in lung at 6 mg/kg, ip measured after 3 days post infection; type: functional; conditions: route intraperitoneal
[8] = system: Streptococcus pneumoniae; assay: Antibacterial activity against low dose 5 x 10^6 CFU Streptococcus pneumoniae serotype 19 infected in semitherapeutic C57BL/6 mouse model assessed as bacterial count in lung at 6 mg/kg, ip measured after 2 days post infection; type: functional; conditions: route intraperitoneal
[9] = system: Streptococcus pneumoniae; assay: Antibacterial activity against low dose 5 x 10^6 CFU Streptococcus pneumoniae serotype 2 infected in semitherapeutic C57BL/6 mouse model at 6 mg/kg, ip over a period of 14 days; type: functional, organism-based; parameters: dose 6 mg/kg
[10] = system: Streptococcus pneumoniae; assay: Antibacterial activity against high dose 1.5 x 10^7 CFU Streptococcus pneumoniae serotype 19 infected in semitherapeutic C57BL/6 mouse model assessed as bacteremic mice at 6 mg/kg, ip measured after 5 day post infection; type: functional, organism-based; parameters: dose 6 mg/kg
[11] = system: Streptococcus pneumoniae; assay: Antibacterial activity against low dose 5 x 10^6 CFU Streptococcus pneumoniae serotype 2 infected in semitherapeutic C57BL/6 mouse model assessed as bacterial count in lung at 6 mg/kg, ip measured after 10 day post infection; type: functional; conditions: route intraperitoneal
[12] = system: Streptococcus pneumoniae; assay: Antibacterial activity against high dose 1.5 x 10^7 CFU Streptococcus pneumoniae serotype 2 infected in semitherapeutic C57BL/6 mouse model assessed as bacterial count in lung at 6 mg/kg, ip measured after 5 day post infection; type: functional; conditions: route intraperitoneal
[13] = system: Streptococcus pneumoniae; assay: Antibacterial activity against low dose 5 x 10^6 CFU Streptococcus pneumoniae serotype 2 infected in semitherapeutic C57BL/6 mouse model assessed as bacterial count in lung at 6 mg/kg, ip measured after 5 day post infection; type: functional; conditions: route intraperitoneal
[14] = system: Streptococcus pneumoniae; assay: Antibacterial activity against 5 x 10^6 CFU Streptococcus pneumoniae serotype 2 infected in semitherapeutic C57BL/6 mouse model assessed as bacterial count in blood at 6 mg/kg, ip measured after 1 day post infection; type: functional; conditions: route intraperitoneal
[15] = system: Streptococcus pneumoniae; assay: Antibacterial activity against high dose 1.5 x 10^7 CFU Streptococcus pneumoniae serotype 2 infected in semitherapeutic C57BL/6 mouse model assessed as reduction of bacteremia at 6 mg/kg, ip measured after 5 day post infection; type: functional, organism-based; parameters: dose 6 mg/kg
[16] = system: Streptococcus pneumoniae; assay: Antibacterial activity against low dose 5 x 10^6 CFU Streptococcus pneumoniae serotype 19 infected in semitherapeutic C57BL/6 mouse model assessed as bacterial count in lung at 6 mg/kg, ip measured after 5 day post infection; type: functional; conditions: route intraperitoneal
[17] = system: Streptococcus pneumoniae; assay: Antibacterial activity against low dose 5 x 10^6 CFU Streptococcus pneumoniae serotype 19 infected in semitherapeutic C57BL/6 mouse model assessed as bacteremic mouse at 6 mg/kg, ip measured after 1 day post infection; type: functional, organism-based; parameters: dose 6 mg/kg
[18] = system: Streptococcus pneumoniae; assay: Antibacterial activity against 1.5 x 10^7 CFU Streptococcus pneumoniae serotype 19 infected in therapeutic C57BL/6 mouse model assessed as increase in compound level in BALF at 6 mg/kg, ip measured on day 3 post infection; type: functional, organism-based; parameters: dose 6 mg/kg
[19] = system: Streptococcus pneumoniae; assay: Antibacterial activity against 1.5 x 10^7 CFU Streptococcus pneumoniae serotype 19 infected in therapeutic C57BL/6 mouse model assessed as effect on lung permeability at 6 mg/kg, ip measured on day 3 post infection; type: functional, organism-based; parameters: dose 6 mg/kg
[20] = system: Streptococcus pneumoniae; assay: Antibacterial activity against low dose 5 x 10^6 CFU Streptococcus pneumoniae serotype 19 infected in semitherapeutic C57BL/6 mouse model assessed as bacterial count in lung at 6 mg/kg, ip measured after 1 day post infection; type: functional; conditions: route intraperitoneal
[21] = system: Streptococcus pneumoniae; assay: Antibacterial activity against 5 x 10^6 CFU Streptococcus pneumoniae serotype 2 infected in semitherapeutic C57BL/6 mouse model assessed as bacterial count in liver at 6 mg/kg, ip measured after 1 day post infection; type: functional; conditions: route intraperitoneal
[22] = system: Streptococcus pneumoniae; assay: Antibacterial activity against high dose 1.5 x 10^7 CFU Streptococcus pneumoniae serotype 19 infected in semitherapeutic C57BL/6 mouse model assessed as reduction of bacteremia at 6 mg/kg, ip measured after 2 days post infection; type: functional, organism-based; parameters: dose 6 mg/kg
[23] = system: Streptococcus pneumoniae; assay: Antibacterial activity against high dose 1.5 x 10^7 CFU Streptococcus pneumoniae serotype 2 infected in semitherapeutic C57BL/6 mouse model assessed as bacterial count in lung at 6 mg/kg, ip measured after 10 day post infection; type: functional; conditions: route intraperitoneal
[24] = system: Streptococcus pneumoniae; assay: Antibacterial activity against 1.5 x 10^7 CFU Streptococcus pneumoniae serotype 19 infected in therapeutic C57BL/6 mouse model assessed as survival rate at 6 mg/kg, ip qd beginning at time of infection measured after 6 days post infection; type: functional; conditions: route intraperitoneal
[25] = system: Streptococcus pneumoniae; assay: Antibacterial activity against low dose 5 x 10^6 CFU Streptococcus pneumoniae serotype 19 infected in semitherapeutic C57BL/6 mouse model assessed as bacteremic mouse at 6 mg/kg, ip measured after 3 days post infection; type: functional, organism-based; parameters: dose 6 mg/kg
[26] = system: Streptococcus pneumoniae; assay: Antibacterial activity against high dose 1.5 x 10^7 CFU Streptococcus pneumoniae serotype 19 infected in semitherapeutic C57BL/6 mouse model assessed as reduction of bacteremia at 6 mg/kg, ip measured after 1 day post infection; type: functional, organism-based; parameters: dose 6 mg/kg
[27] = system: Streptococcus pneumoniae; assay: Antibacterial activity against high dose 1.5 x 10^7 CFU Streptococcus pneumoniae serotype 2 infected in therapeutic C57BL/6 mouse model assessed as bacterial count in blood at 6 mg/kg, ip measured after 4 days post infection; type: functional; conditions: route intraperitoneal
[28] = system: Streptococcus pneumoniae; assay: Antibacterial activity against low dose 5 x 10^6 CFU Streptococcus pneumoniae serotype 19 infected in semitherapeutic C57BL/6 mouse model assessed as bacteremic mouse at 6 mg/kg, ip measured after 5 day post infection; type: functional, organism-based; parameters: dose 6 mg/kg
[29] = system: Streptococcus pneumoniae; assay: Antibacterial activity against low dose 5 x 10^6 CFU Streptococcus pneumoniae serotype 19 infected in semitherapeutic C57BL/6 mouse model assessed as bacteremic mouse at 6 mg/kg, ip measured after 10 day post infection; type: functional, organism-based; parameters: dose 6 mg/kg
[30] = system: Streptococcus pneumoniae; assay: Antibacterial activity against 5 x 10^6 CFU Streptococcus pneumoniae serotype 2 infected in semitherapeutic C57BL/6 mouse model assessed as bacterial count in lung at 6 mg/kg, ip measured after 2 days post infection; type: functional; conditions: route intraperitoneal

Compound: CCCCCCCCCC(=O)N[C@@H](Cc1c[nH]c2ccccc12)C(=O)N[C@H](CC(N)=O)C(=O)N[C@@H](CC(=O)O)C(=O)N[C@@H]1C(=O)NCC(=O)N[C@@H](CCCN)C(=O)N[C@@H](CC(=O)O)C(=O)N[C@H](C)C(=O)N[C@@H](CC(=O)O)C(=O)NCC(=O)N[C@H](CO)C(=O)N[C@@H]([C@H](C)CC(=O)O)C(=O)N[C@@H](CC(=O)c2ccccc2N)C(=O)O[C@@H]1C
- Activity [1]: Active
- Activity [2]: Active
- log10cfu [3]: 3.8
- log10cfu [4]: 5.5
- log10cfu [5]: 4.5
- Activity [6]: Active
- log10cfu [7]: 3.5
- log10cfu [8]: 5.5
- Activity [9]: Active
- Activity [10]: Active
- log10cfu [11]: 2.5
- log10cfu [12]: 2.2
- log10cfu [13]: 3.2
- log10cfu [14]: 2
- Activity [15]: Active
- log10cfu [16]: 3.5
- Activity [17]: Active
- Activity [18]: Active
- Activity [19]: Active
- log10cfu [20]: 6.3
- log10cfu [21]: 1.8
- Activity [22]: Active
- log10cfu [23]: 2.9
- Activity [24]: 40%
- Activity [25]: Active
- Activity [26]: Active
- log10cfu [27]: 2.6
- Activity [28]: Active
- Activity [29]: Active
- log10cfu [30]: 3.6
